Experimental data taken from ChEMBL document CHEMBL1201862, “PubChem BioAssay data set” (2004).
Activity calls are given as the source filed them.

Tests used:
[1] = tested on: BJ; test: cells; format: functional, cell-based; conditions: Homo sapiens
[2] = biological target: Glutathione S-transferase omega-1 (Homo sapiens, UniProt P78417); test: GSTO1 inhibitor potency, recombinant enzyme, late-stage follow-up, biochemical, SE-Rh probe, in-gel fluorescence, powder samples (AID 463081); format: functional
Chain of Glutathione S-transferase omega-1 (P78417 whole entry): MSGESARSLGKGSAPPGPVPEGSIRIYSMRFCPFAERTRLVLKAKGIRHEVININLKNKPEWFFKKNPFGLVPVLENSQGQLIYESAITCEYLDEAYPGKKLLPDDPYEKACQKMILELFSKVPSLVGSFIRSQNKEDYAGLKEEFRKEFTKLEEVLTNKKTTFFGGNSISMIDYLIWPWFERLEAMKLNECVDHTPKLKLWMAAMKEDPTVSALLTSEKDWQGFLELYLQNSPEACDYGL

[3] = cytotoxicity toward DRD oncogenic fibroblasts, dose response, cell-based, non-viral oncogenic, luminescence (AID 1934); format: functional; conditions: Homo sapiens
[4] = tested on: BJ; test: cytotoxicity toward BJ-TERT fibroblasts, dose response, cell-based, RAS-independent, luminescence (AID 1933); format: functional; conditions: Homo sapiens
[5] = tested on: BJ; test: cytotoxicity toward BJ-TERT-LT-ST fibroblasts, dose response, cell-based, RAS-independent, luminescence (AID 1935); format: functional; conditions: Homo sapiens;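 further: BJ fibroblasts immortalized with TERT plus LT and ST oncogenes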
[6] = biological target: T1, Protein RecA (Mycobacterium tuberculosis, UniProt P9WHJ3); test: Fluorescence Cell-Free Homogeneous Dose Retest to Identify Inhibitors of RecA-Intein Splicing Activity. [Related pubchem assays (depositor defined):AID2097, AID2223, AID489010, AID492950]; format: functional
T1 sequence (P9WHJ3 whole entry): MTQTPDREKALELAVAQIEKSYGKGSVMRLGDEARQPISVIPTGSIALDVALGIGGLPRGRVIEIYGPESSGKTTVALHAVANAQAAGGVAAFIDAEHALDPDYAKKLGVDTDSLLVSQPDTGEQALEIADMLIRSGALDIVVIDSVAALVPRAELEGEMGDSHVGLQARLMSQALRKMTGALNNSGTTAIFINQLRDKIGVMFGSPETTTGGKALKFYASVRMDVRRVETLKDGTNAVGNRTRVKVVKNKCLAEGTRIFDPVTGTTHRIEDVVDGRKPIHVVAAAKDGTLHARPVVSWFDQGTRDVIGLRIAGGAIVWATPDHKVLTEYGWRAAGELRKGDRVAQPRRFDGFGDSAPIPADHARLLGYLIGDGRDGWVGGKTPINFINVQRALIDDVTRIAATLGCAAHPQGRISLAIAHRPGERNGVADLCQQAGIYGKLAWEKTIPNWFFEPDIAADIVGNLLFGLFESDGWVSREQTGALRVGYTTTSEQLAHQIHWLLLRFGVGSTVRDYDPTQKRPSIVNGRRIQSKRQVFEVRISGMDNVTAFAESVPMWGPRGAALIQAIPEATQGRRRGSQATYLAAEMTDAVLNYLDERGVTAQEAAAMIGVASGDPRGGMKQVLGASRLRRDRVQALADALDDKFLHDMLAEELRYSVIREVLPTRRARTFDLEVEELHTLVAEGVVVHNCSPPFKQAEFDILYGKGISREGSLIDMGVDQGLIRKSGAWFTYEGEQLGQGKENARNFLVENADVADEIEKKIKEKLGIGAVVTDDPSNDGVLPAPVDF

[7] = Intein inhibitors as potential Tuberculosis drugs, a cytotoxicity screen. [Related pubchem assays (depositor defined):AID2221, AID2223, AID434968, AID435010, AID449749, AID449750, AID489010]; format: functional
[8] = biological target: T2, Replicative DNA helicase DnaB (Mycobacterium tuberculosis, UniProt P9WMR3); test: DnaB intein splicing inhibitors, dose response, biochemical, cell-free fluorescence (AID 449749); format: functional
T2 sequence (P9WMR3 whole entry): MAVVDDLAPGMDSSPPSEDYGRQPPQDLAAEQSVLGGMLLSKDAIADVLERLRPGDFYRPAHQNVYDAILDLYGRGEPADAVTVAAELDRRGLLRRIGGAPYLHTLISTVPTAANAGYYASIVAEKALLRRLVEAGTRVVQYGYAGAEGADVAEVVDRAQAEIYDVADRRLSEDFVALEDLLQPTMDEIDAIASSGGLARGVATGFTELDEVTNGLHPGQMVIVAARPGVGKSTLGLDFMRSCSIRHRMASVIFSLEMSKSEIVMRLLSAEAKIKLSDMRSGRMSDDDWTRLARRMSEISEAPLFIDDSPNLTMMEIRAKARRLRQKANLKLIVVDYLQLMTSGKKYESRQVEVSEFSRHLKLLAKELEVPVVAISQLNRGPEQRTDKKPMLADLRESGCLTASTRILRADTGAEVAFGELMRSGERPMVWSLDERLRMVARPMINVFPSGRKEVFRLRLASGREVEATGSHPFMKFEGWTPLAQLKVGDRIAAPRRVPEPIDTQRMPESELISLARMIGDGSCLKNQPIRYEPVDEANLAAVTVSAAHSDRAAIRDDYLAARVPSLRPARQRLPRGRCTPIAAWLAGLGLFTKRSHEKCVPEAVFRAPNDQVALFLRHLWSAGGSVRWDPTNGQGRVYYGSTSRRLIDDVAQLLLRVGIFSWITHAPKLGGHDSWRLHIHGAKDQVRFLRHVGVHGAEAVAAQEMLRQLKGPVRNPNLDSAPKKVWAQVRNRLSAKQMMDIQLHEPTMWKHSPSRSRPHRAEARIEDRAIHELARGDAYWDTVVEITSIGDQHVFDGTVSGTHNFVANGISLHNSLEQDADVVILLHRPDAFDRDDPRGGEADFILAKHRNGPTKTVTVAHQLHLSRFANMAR

[9] = biological target: T3, Microphthalmia-associated transcription factor (Homo sapiens, UniProt O75030); test: TRPM1 promoter luciferase signal decrease, dose response, MITF inhibitor project, cell-based, SK-MEL-5, cherry-picked, set 3 (AID 493073); format: functional
T3 sequence (O75030 whole entry): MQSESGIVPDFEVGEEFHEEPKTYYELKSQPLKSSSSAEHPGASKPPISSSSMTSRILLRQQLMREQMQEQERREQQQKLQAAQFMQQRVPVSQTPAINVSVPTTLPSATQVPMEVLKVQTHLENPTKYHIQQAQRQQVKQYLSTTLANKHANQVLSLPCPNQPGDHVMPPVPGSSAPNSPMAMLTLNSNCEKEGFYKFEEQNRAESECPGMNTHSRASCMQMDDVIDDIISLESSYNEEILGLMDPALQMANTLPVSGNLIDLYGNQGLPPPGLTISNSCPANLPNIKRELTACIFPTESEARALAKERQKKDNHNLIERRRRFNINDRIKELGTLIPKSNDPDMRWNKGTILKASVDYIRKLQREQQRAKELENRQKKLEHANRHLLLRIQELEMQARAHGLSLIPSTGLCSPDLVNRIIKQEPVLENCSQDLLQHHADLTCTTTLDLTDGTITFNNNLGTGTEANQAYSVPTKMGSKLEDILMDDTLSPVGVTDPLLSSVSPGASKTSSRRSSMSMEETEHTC

[10] = biological target: Protein phosphatase methylesterase 1 (Homo sapiens, UniProt Q9Y570); test: PME-1 inhibitors by competitive ABPP, late-stage follow-up, gel-based ABPP, IC50, set 1 (AID 463130); format: functional
Chain of Protein phosphatase methylesterase 1 (Q9Y570 whole entry): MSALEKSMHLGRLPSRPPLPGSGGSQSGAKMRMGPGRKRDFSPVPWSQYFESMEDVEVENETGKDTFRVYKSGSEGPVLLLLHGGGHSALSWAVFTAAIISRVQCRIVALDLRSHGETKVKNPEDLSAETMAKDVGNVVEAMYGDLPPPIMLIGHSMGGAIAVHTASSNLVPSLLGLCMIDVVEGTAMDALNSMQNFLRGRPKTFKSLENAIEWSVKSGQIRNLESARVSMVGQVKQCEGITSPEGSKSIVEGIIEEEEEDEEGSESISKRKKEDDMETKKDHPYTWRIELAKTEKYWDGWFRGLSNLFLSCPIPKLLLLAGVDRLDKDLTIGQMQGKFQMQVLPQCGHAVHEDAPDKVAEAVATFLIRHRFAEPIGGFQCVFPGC

[11] = biological target: T4, X-box-binding protein 1 (Homo sapiens, UniProt P17861); format: functional, Cricetulus griseus;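 further: confirmatory dose-response counter-screen serving a CHOP assay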
T4 sequence (P17861 whole entry): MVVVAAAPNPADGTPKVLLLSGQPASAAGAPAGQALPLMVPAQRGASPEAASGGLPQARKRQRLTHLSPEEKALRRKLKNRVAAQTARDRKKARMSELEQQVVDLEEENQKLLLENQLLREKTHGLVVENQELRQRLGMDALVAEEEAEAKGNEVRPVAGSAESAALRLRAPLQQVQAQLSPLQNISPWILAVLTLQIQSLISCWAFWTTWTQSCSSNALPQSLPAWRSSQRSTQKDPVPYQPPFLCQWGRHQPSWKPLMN

[12] = biological target: DNA damage-inducible transcript 3 protein (Mus musculus, UniProt P35639); format: functional, Cricetulus griseus
Chain of DNA damage-inducible transcript 3 protein (P35639 whole entry): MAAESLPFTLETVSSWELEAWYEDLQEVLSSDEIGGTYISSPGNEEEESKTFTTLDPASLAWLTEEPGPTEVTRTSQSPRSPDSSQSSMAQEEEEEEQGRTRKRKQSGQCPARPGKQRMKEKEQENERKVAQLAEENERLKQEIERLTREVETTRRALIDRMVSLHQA

[13] = biological target: T5, Voltage-gated N-type calcium channel alpha-1B subunit/Amyloid beta A4 precursor protein-binding family A member 1 (Homo sapiens, UniProt Q00975+Q02410); format: protein assay
T5 sequence (Q00975 whole entry): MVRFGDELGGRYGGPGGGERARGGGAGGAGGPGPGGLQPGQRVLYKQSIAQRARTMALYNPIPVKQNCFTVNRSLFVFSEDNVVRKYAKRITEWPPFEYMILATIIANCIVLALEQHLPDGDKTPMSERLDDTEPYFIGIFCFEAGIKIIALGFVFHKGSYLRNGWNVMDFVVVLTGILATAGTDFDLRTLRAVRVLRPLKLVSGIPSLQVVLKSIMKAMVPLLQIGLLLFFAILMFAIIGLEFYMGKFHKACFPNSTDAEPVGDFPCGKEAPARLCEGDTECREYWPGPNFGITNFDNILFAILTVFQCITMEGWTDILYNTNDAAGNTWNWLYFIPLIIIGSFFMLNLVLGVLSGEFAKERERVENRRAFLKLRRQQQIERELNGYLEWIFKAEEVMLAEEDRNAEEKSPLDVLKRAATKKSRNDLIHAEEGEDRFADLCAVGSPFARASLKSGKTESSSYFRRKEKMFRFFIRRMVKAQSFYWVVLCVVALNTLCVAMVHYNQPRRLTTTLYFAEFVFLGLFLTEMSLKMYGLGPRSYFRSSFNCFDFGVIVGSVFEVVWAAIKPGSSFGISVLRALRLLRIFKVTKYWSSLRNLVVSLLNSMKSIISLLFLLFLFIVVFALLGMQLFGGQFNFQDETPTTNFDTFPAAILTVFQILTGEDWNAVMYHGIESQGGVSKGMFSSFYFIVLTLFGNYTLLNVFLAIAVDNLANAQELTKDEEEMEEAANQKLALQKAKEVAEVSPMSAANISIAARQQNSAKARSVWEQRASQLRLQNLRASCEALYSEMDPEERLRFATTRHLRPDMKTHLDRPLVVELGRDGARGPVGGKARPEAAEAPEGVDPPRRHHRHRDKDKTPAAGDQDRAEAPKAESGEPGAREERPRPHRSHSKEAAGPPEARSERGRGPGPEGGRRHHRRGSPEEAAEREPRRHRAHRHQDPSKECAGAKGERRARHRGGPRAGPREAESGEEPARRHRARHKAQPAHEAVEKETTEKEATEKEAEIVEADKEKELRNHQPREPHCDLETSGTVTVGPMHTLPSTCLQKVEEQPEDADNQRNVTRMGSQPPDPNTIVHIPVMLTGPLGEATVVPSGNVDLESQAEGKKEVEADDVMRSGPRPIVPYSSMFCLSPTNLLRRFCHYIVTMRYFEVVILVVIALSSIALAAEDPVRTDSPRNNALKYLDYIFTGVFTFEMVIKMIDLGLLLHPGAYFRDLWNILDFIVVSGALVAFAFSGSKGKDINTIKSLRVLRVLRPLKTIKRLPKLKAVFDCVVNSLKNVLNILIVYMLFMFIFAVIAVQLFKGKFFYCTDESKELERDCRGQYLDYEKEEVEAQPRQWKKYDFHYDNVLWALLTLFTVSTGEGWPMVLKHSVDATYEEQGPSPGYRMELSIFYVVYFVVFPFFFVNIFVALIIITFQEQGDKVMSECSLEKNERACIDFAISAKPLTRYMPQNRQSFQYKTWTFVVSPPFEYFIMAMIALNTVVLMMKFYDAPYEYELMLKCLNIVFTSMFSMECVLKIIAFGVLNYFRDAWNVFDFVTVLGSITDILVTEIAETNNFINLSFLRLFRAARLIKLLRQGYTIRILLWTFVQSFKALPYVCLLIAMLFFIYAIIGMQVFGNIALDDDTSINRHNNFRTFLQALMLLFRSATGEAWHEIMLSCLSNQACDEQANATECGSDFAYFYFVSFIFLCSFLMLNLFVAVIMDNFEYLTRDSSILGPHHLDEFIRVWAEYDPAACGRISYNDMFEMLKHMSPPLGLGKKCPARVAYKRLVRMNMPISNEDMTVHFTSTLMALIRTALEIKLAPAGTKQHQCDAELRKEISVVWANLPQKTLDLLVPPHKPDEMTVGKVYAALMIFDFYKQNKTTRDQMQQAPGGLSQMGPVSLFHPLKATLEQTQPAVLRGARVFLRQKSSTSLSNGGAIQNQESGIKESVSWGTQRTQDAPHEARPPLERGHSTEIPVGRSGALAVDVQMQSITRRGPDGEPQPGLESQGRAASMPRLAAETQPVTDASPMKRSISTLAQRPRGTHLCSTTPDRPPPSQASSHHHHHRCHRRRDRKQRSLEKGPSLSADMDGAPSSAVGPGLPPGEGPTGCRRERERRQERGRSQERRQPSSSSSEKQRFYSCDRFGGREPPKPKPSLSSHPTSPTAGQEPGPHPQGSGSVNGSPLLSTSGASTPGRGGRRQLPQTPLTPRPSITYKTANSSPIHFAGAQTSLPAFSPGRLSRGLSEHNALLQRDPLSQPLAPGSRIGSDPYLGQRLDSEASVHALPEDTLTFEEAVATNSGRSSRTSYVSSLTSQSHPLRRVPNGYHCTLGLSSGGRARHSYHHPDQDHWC
T5 sequence (Q02410 whole entry): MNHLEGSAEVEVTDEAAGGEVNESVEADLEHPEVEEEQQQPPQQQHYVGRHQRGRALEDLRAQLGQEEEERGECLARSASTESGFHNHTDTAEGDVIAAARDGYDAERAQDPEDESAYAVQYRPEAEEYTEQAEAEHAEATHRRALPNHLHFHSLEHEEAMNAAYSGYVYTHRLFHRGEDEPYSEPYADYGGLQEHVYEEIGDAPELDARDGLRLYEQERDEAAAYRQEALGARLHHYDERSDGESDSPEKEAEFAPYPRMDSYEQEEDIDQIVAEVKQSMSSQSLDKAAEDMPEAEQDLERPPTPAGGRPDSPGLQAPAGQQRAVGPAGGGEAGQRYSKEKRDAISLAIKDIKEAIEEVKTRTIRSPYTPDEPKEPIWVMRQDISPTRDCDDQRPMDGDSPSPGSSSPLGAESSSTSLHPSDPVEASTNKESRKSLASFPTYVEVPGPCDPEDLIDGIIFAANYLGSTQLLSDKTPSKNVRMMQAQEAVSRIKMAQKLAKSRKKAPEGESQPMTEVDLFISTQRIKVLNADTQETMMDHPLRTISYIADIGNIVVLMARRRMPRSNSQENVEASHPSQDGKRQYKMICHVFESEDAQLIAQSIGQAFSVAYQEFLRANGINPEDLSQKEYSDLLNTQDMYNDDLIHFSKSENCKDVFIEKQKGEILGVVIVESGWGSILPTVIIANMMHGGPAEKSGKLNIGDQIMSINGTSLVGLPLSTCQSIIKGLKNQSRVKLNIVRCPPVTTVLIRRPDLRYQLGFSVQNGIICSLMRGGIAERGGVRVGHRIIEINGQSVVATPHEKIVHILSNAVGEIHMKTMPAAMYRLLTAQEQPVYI

[14] = biological target: T5, Voltage-gated N-type calcium channel alpha-1B subunit/Amyloid beta A4 precursor protein-binding family A member 1; format: protein assay; remark: listed apart in the source
[15] = tested on: T-cell; test: inhibitors of CD8+ T cell–vesicle binding, dose response, mouse 2C CD8+ T cells, flow cytometry (AID 485284); format: functional
[16] = biological target: T6, Alkaline phosphatase, tissue-nonspecific isozyme (Homo sapiens, UniProt P05186); test: human TNAP enzyme inhibitors, SAR follow-up, biochemical, luminescent, dose response (AID 1056)
T6 sequence (P05186 whole entry): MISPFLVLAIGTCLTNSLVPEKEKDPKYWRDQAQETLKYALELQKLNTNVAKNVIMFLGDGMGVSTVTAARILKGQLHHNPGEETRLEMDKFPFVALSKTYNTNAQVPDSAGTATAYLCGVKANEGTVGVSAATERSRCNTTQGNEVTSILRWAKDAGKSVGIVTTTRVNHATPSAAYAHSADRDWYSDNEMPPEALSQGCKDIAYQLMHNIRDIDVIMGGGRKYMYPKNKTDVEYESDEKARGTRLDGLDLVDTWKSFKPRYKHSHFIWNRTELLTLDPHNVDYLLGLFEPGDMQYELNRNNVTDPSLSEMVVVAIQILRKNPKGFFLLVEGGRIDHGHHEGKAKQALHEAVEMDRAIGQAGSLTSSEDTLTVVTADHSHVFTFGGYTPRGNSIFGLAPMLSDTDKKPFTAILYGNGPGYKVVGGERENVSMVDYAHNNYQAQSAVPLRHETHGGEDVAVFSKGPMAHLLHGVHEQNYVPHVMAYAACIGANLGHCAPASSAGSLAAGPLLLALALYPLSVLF

[17] = biological target: Alkaline phosphatase, placental type (Homo sapiens, UniProt P05187); test: PLAP enzyme inhibitors, confirmation, biochemical, luminescence (AID 1512); format: functional
[18] = mammalian cell cytotoxicity, dose response, cytotoxicity control, plate reader, cherry-pick samples (AID 504397); format: functional, cell-based
[19] = biological target: T7, Runt-related transcription factor 1/Core-binding factor subunit beta (Homo sapiens, UniProt Q01196+Q13951); test: inhibitors of RUNX1 Runt–CBFb-SMMHC binding, primary screen, biochemical, FRET, Cerulean-Runt, Venus-CBFb-SMMHC, uHTS (AID 1434); format: protein assay;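 further: partner is the CBFb-SMMHC leukemia fusion protein rather than wild-type CBFb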
T7 sequence (Q01196 whole entry, the tested form may be a part): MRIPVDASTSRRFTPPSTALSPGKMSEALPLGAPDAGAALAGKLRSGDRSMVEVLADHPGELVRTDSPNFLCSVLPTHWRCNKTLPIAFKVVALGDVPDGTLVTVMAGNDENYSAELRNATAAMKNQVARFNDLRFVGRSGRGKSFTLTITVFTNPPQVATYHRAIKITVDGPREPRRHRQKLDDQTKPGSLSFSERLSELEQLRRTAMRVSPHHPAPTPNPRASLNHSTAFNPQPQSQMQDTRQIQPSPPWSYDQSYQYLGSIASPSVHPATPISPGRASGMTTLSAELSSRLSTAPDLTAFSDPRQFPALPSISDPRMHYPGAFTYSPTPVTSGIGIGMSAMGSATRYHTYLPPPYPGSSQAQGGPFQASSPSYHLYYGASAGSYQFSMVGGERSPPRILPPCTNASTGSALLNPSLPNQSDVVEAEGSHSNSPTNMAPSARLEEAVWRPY
T7 sequence (Q13951 whole entry, the tested form may be a part): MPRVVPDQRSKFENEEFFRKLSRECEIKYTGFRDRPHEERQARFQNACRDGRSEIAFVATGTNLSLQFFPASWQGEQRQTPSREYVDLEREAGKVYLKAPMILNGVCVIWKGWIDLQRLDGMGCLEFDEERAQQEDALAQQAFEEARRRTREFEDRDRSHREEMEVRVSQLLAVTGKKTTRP

[20] = biological target: T8, Zinc finger protein mex-5 (Caenorhabditis elegans, UniProt Q9XUB2); test: MEX-5/TCR-2 RNA interaction inhibitors, dose response, biochemical, C. elegans, fluorescence polarization (AID 1960)
T8 sequence (Q9XUB2 whole entry): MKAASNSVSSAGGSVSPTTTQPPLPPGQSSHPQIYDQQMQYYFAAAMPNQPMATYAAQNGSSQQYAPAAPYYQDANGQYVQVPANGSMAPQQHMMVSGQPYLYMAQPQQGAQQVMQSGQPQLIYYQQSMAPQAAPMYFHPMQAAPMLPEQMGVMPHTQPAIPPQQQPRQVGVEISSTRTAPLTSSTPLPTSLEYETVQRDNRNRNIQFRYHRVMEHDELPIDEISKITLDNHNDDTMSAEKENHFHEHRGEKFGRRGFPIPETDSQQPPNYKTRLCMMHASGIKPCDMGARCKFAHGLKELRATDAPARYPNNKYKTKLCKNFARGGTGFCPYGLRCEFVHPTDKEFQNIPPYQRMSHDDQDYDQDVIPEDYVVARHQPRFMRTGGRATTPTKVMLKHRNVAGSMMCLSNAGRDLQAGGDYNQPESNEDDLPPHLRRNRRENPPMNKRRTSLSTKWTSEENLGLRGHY

[21] = biological target: Induced myeloid leukemia cell differentiation protein Mcl-1 (Homo sapiens, UniProt Q07820); format: functional
Chain of Induced myeloid leukemia cell differentiation protein Mcl-1 (Q07820 whole entry): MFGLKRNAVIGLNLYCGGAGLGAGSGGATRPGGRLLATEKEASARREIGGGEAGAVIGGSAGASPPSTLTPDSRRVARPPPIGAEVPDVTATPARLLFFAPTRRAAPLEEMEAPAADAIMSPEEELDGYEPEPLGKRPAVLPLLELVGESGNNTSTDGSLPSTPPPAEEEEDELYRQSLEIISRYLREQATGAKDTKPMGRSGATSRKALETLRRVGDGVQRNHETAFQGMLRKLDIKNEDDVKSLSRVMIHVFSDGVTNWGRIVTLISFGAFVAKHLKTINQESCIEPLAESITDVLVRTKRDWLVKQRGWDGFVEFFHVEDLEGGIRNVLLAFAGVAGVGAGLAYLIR

[22] = biological target: T7, Runt-related transcription factor 1/Core-binding factor subunit beta; test: inhibitors of RUNX1 Runt–CBFb-SMMHC binding, biochemical, TR-FRET (AID 1438); format: protein assay
[23] = biological target: T9, RNA-binding protein pos-1 (Caenorhabditis elegans, UniProt G5EF15); test: inhibitors of POS-1/mex-3 RNA binding, dose response, biochemical, fluorescence polarization (AID 1964);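 further: purified POS-1 fused to maltose binding protein made in E. coli; potency of compounds blocking POS-1 binding to fluorescent RNA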
T9 sequence (G5EF15 whole entry): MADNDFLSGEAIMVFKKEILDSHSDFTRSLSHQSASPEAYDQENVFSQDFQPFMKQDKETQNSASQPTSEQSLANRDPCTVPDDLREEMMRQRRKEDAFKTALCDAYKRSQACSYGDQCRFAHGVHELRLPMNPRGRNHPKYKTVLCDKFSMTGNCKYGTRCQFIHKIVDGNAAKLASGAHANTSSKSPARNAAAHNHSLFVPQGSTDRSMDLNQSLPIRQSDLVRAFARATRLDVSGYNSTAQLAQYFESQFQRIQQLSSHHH
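Wherever CC50 is given: cells exposed to compound for 72 hours before luminescence readout.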

Question: What does the source list for `O=C(NC1CCCCC1)C(c1cccnc1)N(C(=O)CCl)c1cccc(Cl)c1` (stereo not drawn)?
Answer: EC50 [1]: 5.05 µM (active); IC50 [2]: 0.038 µM (active); EC50 [3]: 2.77 µM (active); EC50 [4]: 0.349 µM (active); EC50 [5]: 7.06 µM (inconclusive); EC50 [6]: 0.467 µM (active); CC50 [7]: 0.82 µM (active); AC50 [8]: 3.23 µM (active); AC50 [9]: 4.16 µM (active)

Question: With `COC(=O)N1C(=O)[C@@](CC(C)C)(c2ccccc2)N1C(=O)OC` as the molecule, how does the IC50 [10] read?
Answer: 0.227 µM (active)

Question: For `C=CCO/C(O)=C1\C(C)=NC(SCC(=O)Nc2ccccc2)=C(C#N)C1c1ccco1` (stereo not drawn), which “Absolute IC50 (XBP1)” value [11] is on record?
Answer: 10 µM

Question: What about the “Absolute IC50 (CHOP)” value [12] of the same molecule?
Answer: 10 µM

Question: Which results are given for `Cc1c(C)c2c(OCC(=O)Nc3cccnc3)cc3c(c2oc1=O)CCC(C)(C)O3`?
Answer: IC50 [13]: > 50 µM (inactive); IC50 [14]: 12.1 µM (active)

Question: For `CN(C)C=O.O=C(COC(=O)C12CC3CC(CC(Br)(C3)C1)C2)Nc1cccc(S(=O)(=O)N2CCOCC2)c1`, which EC50 [15] is on record?
Answer: 4.6 µM (active)

Question: Which IC50 [16] does the source give for `CCOC(=O)NC1(C(Cl)(Cl)Cl)Oc2ccc(Cl)cc2O1` (stereo not drawn) here?
Answer: > 100 µM (inactive)

Question: And the IC50 [17]?
Answer: 55.5 µM (active)

Question: For `COc1ccccc1/C=C/C=N/NC(=O)CN1CCN(S(=O)(=O)c2ccc(C)cc2)CC1`, which AC50 [18] is on record?
Answer: 132 µM (active)

Question: For `COc1ccc(C(=O)/N=c2\c(C#N)cc3c(=O)n4cccc(C)c4nc3n2Cc2ccco2)cc1`, which IC50 [19] is on record?
Answer: 8.9 µM (active)

Question: And the EC50 [20]?
Answer: > 300 µM (not active)

Question: What about the IC50 [21] of the same molecule?
Answer: 3.9 µM (active)

Question: And the IC50 [22]?
Answer: 73.7 µM (inactive)

Question: And the EC50 [23]?
Answer: 220 µM (active)
